Earlier results on 1 substance are cited in paper PMC4026281 (Journal of neurochemistry, 2012).

This data set relates to rat α6/3β2 chimeric nAChRs. The settings on record: cited from earlier work.

As for α-conotoxin MII [α-CtxMII], the “t1/2 of recovery from α-CtxMII inhibition, rat α6/3β2 chimeric nAChRs” value is more than 20 min.
